According to patent US10968227B2, “Isoquinoline ether compounds as mGluR4 allosteric potentiators, compositions, and methods of treating neurological dysfunction” (Vanderbilt University, priority 2016, dated 2021):
≈ marks a conversion by molar mass, not a printed value.

Legend:
Brain-plasma partition = format: in vivo; conditions: rat; for unbound brain-to-plasma partition coefficient (Kp,uu): unbound brain-plasma ratio, read-out: Brain-Plasma Kp,ω
[1] = Rat plasma fraction unbound; format: in vitro ADME; conditions: read-out: Rat Fu Plasma
1A2 = 1A2 (Homo sapiens (Human), UniProt P05177); experiment: CYP 1A2 inhibition; format: in vitro ADME
Rat in vivo clearance = conditions: read-out: Rat in Vivo CL
2D6 = 2D6 (Homo sapiens (Human), UniProt P10635); experiment: CYP 2D6 inhibition; format: in vitro ADME
[2] = Human intrinsic and hepatic clearance; format: in vitro ADME
[3] = Rat brain fraction unbound; format: in vitro ADME; conditions: read-out: Rat Fu Brain
2C9 = 2C9 (Homo sapiens (Human), UniProt P11712); experiment: CYP 2C9 inhibition; format: in vitro ADME
[4] = Rat intrinsic and hepatic clearance; format: in vitro ADME
[5] = Human plasma fraction unbound; format: in vitro ADME; conditions: read-out: Human Fu Plasma
3A4 = 3A4 (Homo sapiens (Human), UniProt P08684); experiment: CYP 3A4 inhibition; format: in vitro ADME
Kinetic solubility = format: physicochemical; conditions: kinetic from dmso stock

Chain of 2D6 (P10635 whole entry): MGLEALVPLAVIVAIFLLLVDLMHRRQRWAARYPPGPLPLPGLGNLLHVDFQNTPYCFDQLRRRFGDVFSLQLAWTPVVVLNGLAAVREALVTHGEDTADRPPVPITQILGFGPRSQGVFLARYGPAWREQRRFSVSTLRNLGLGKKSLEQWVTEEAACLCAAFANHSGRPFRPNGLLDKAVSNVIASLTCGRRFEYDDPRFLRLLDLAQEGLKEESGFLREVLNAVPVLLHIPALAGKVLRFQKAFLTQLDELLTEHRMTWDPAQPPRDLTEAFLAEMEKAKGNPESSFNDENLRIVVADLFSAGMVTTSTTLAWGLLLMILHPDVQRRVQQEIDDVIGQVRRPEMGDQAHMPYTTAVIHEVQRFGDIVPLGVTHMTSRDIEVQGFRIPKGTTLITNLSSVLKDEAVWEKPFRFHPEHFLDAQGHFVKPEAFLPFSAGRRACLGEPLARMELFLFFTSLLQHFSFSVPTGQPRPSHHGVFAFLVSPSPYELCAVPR
Chain of 2C9 (P11712 whole entry): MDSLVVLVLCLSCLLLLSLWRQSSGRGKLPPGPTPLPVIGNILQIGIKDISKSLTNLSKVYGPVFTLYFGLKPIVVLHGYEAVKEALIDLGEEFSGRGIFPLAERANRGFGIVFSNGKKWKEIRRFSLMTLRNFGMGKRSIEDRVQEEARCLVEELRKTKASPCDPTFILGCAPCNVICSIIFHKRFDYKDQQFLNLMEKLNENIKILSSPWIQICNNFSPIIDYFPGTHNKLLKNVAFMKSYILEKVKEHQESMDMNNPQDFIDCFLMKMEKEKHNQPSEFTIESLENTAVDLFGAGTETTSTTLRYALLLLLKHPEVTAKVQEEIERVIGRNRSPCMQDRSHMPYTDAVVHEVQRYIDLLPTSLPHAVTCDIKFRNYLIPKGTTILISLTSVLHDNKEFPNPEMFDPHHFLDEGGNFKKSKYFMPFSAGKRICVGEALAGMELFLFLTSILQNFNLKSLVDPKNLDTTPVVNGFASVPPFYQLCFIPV
Chain of 3A4 (P08684 whole entry): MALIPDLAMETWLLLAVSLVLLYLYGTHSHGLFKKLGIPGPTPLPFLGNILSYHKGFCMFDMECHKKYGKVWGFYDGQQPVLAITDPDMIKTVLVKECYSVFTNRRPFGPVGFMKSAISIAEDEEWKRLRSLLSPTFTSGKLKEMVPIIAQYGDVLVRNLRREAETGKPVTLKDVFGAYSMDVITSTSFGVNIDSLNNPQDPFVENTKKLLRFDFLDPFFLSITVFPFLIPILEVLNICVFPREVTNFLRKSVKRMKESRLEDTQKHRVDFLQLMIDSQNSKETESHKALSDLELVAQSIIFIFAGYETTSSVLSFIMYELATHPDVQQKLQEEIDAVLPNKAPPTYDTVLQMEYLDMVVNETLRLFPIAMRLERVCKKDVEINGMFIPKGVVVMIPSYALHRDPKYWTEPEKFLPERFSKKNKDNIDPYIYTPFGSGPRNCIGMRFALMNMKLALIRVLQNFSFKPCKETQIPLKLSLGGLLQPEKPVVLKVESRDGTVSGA
Chain of 1A2 (P05177 whole entry): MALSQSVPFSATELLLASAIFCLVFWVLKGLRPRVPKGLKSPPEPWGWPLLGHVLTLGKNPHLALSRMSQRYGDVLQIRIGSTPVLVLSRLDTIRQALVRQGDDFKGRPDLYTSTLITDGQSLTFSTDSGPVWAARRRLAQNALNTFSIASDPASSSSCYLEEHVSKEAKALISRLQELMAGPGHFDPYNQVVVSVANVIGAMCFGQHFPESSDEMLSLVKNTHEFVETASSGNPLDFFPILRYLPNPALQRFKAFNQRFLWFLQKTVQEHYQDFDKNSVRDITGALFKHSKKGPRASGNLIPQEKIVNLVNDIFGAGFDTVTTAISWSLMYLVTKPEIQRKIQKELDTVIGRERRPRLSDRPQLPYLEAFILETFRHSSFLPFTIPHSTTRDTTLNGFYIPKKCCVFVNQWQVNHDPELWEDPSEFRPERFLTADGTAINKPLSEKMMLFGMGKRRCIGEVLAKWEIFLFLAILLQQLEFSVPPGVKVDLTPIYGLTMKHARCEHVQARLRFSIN

Compound | Kp (Brain-plasma partition) | unbound brain-to-plasma partition coefficient (Kp,uu) (Brain-plasma partition) | fraction unbound [1] | IC50 (1A2) | clearance (Rat in vivo clearance) | IC50 (2D6) | CLint scaled [2] | Human CLhep [2] | fraction unbound [3] | IC50 (2C9) | CLint scaled [4] | Rat CLhep [4] | fraction unbound [5] | IC50 (3A4) | solubility kinetic (Kinetic solubility)
c1cnc2c(Nc3ccc4c(O[C@H]5CCCOC5)nccc4c3)n[nH]c2c1 [Compound 61] | 1.83 | 0.23 | 0.04 | 5.86 µM | 61 mL/min/kg | 19.7 µM | 44 mL/min/kg | 14.2 mL/min/kg | 0.005 | 6.04 µM | 333 mL/min/kg | 57.8 mL/min/kg | 0.028 | 4.29 µM | –
C[C@H]1C[C@H](Oc2nccc3cc(Nc4n[nH]c5ncccc45)ccc23)CO1 [Compound 88] | 2.22 | 0.21 | 0.032 | 17 µM | 43.3 mL/min/kg | > 30 µM | 18.1 mL/min/kg | 9.71 mL/min/kg | 0.003 | > 30 µM | 79.9 mL/min/kg | 37.3 mL/min/kg | 0.01 | > 30 µM | 0.5 ± 0.2 µM (≈ 0.181 µg/mL)
COCCOc1nccc2cc(Nc3n[nH]c4cccnc34)ccc12 [Compound 67] | 1.11 | 0.2 | 0.039 | 4.76 µM | 82.2 mL/min/kg | > 30 µM | 35.2 mL/min/kg | 13.2 mL/min/kg | 0.007 | 22 µM | 113 mL/min/kg | 43.2 mL/min/kg | 0.024 | 9.45 µM | 5.5 ± 0.5 µM (≈ 1.84 µg/mL)
c1cnc2c(Nc3ccc4c(O[C@@H]5CCCOC5)nccc4c3)n[nH]c2c1 [Compound 62] | 3.38 | 0.36 | 0.038 | 6.32 µM | – | 27.8 µM | 58.3 mL/min/kg | 15.4 mL/min/kg | 0.004 | 3.96 µM | 461 mL/min/kg | 60.8 mL/min/kg | 0.017 | 4.76 µM | 10.3 ± 1.1 µM (≈ 3.72 µg/mL)
c1cc2cc(Nc3n[nH]c4nccnc34)ccc2c(OCC2CCOC2)n1 (stereo not drawn) [Compound 85] | 0.66 | 0.45 | 0.019 | > 30 µM | 36.9 mL/min/kg | > 30 µM | 41.2 mL/min/kg | 13.9 mL/min/kg | 0.013 | > 30 µM | 95.7 mL/min/kg | 40.4 mL/min/kg | 0.026 | > 30 µM | 0.6 ± 0.1 µM (≈ 0.217 µg/mL)
c1cc2cc(Nc3n[nH]c4nccnc34)ccc2c(OCC2COCCO2)n1 (stereo not drawn) [Compound 86] | 0.35 | 0.11 | 0.057 | > 30 µM | – | > 30 µM | 19 mL/min/kg | 10.0 mL/min/kg | 0.018 | > 30 µM | 58.1 mL/min/kg | 31.7 mL/min/kg | 0.063 | > 30 µM | 0.6 ± 0.2 µM (≈ 0.227 µg/mL)
COCCOc1nccc2cc(Nc3n[nH]c4ncccc34)ccc12 [Compound 74] | 0.59 | 0.1 | 0.041 | > 30 µM | – | > 30 µM | 32.3 mL/min/kg | 12.7 mL/min/kg | 0.007 | > 30 µM | 252 mL/min/kg | 54.8 mL/min/kg | 0.038 | > 30 µM | 0.8 ± 0.3 µM (≈ 0.268 µg/mL)
c1cnc2c(Nc3ccc4c(OC5CCOCC5)nccc4c3)n[nH]c2c1 [Compound 60] | 1.44 | 0.39 | 0.03 | 5.68 µM | 81.6 mL/min/kg | 23.5 µM | 16.1 mL/min/kg | 8.79 mL/min/kg | 0.008 | 3.9 µM | 94.1 mL/min/kg | 40.1 mL/min/kg | 0.02 | 12.3 µM | –
c1cc2cc(Nc3n[nH]c4nccnc34)ccc2c(O[C@@H]2CCOC2)n1 [Compound 58] | 1.29 | 0.33 | 0.055 | > 30 µM | 116 mL/min/kg | > 30 µM | 32.4 mL/min/kg | 12.7 mL/min/kg | 0.014 | > 30 µM | 122 mL/min/kg | 44.4 mL/min/kg | 0.032 | > 30 µM | –
C[C@H]1C[C@H](Oc2nccc3cc(Nc4n[nH]c5cccnc45)ccc23)CO1 [Compound 87] | – | – | – | 15.8 µM | 39.1 mL/min/kg | > 30 µM | 16 mL/min/kg | 9.07 mL/min/kg | – | 1.85 µM | 61 mL/min/kg | 32.6 mL/min/kg | – | > 30 µM | 0.7 ± 0.4 µM (≈ 0.253 µg/mL)
COCCOc1nccc2cc(Nc3n[nH]c4nccnc34)ccc12 [Compound 81] | 0.4 | 0.13 | 0.048 | 0.79 µM | – | > 30 µM | 38.5 mL/min/kg | 13.6 mL/min/kg | 0.015 | > 30 µM | 74.4 mL/min/kg | 36.1 mL/min/kg | 0.032 | > 30 µM | 0.9 ± 0.2 µM (≈ 0.303 µg/mL)
c1cnc2[nH]nc(Nc3ccc4c(OCC5COCCO5)nccc4c3)c2c1 (stereo not drawn) [Compound 80] | 0.46 | 0.09 | 0.037 | > 30 µM | – | > 30 µM | 22.4 mL/min/kg | 10.8 mL/min/kg | 0.007 | 26.9 µM | 376 mL/min/kg | 59.0 mL/min/kg | 0.033 | > 30 µM | 1.4 ± 0.1 µM (≈ 0.528 µg/mL)
c1cnc2[nH]nc(Nc3ccc4c(O[C@H]5CCOC5)nccc4c3)c2c1 [Compound 66] | 0.87 | 0.11 | 0.047 | > 30 µM | – | > 30 µM | 37.9 mL/min/kg | 13.5 mL/min/kg | 0.006 | > 30 µM | 210 mL/min/kg | 52.5 mL/min/kg | 0.019 | > 30 µM | –
